The subject of one data set is V. cholerae. Description: V. cholerae chemotaxis assay (overexpressed cGAMP synthases). It counts as cell-based, Vibrio cholerae. The settings on record: overexpression as MBP N-terminal fusion, arabinose induced. Here is the method:
V. cholerae strains were cultured at 37° C. on LB media (1% tryptone, 0.5% yeast extract, 0.5% NaCl w/v), stored at −80° C. in LB supplemented with 30% glycerol, and were all derivatives of streptomycin resistant C6706 dncV: Tn (to remove endogenous 3′3′ cGAMP synthesis) (Davies et al. (2012) Cell 149:358-370). Where appropriate, antibiotics and supplemented nutrients were used at the following concentrations: streptomycin (100 μg ml^−1), carbenicillin (100 μg ml^−1), and diaminopimelic acid (300 μg ml^−1). hcGAS (D157-F522) and mcGAS (P147-L507) were codon optimized for bacterial expression (Genscript and IDT respectively), and all cGAS enzymes and control genes were overexpressed from a custom plasmid pBAD24T, a conjugation-proficient version of pBAD24 that harbors an arabinose inducible promoter and a strong ribosomal binding site (Guzman et al. (1995) J Bacteriol 177:4121-4130) that was further modified to include a new multiple cloning site. All genes overexpressed in V. cholera were encoded as MBP N-terminal fusions except the MBP alone negative control vector (Table 5).
[…]. V. cholerae chemotaxis assays were performed as previously described (Davies et al. (2012) Cell 149:358-370). Briefly, chemotaxis medium (1% tryptone, 0.5% NaCl, 0.3% agar w/v) was prepared, autoclaved, and stored at 2x concentration; and chemotaxis plates were prepared 2-24 h prior to inoculation. 2x medium was melted, diluted to 1× with sterile water, and supplemented with 0.2% (w/v) arabinose. Deep-well plates (OmniTray w/Lid, Thermo Fisher) were poured at 40 ml/plate. Overnight, stationary phase cultures (16-24 h post inoculation) were diluted 10-fold with fresh LB, arrayed in a 96-well plate, then applied to the surface of a chemotaxis plate via pinning with a 96-pin, floating pin replicator (VP 408FH, V&P Scientific). Alternatively, 1 μl of diluted culture was applied to the surface of chemotaxis agar by pipetting. Chemotaxis plates were incubated at 30° C. for 16-24 h.
Chemotaxis was quantified by imaging plates at 16-24 h post inoculation and digitally measuring the area of motile bacteria using ImageJ (Schneider et al. (2012) Nat Methods 9:671-675). Chemotaxis area was normalized to MBP alone vector for each experiment for expression of “chemotaxis as a % of MBP”. Values were transformed into “chemotaxis repression” by calculating (chemotaxis as a % of MBP)-1, then normalizing this value to dncV. Chemotaxis repression was determined and used to simplify a direct relationship between cGAMP levels and plotted values.

Data set [1] has as its system 45 bp double-stranded interferon stimulatory DNA. Description: In vitro cGAS 2′3′ cGAMP synthesis assay. It counts as biochemical. To be noted: for 2′3′ cGAMP synthesis: 45 bp DNA. Here is the method: […]. Briefly, 1 μM cGAS (or other concentration as indicated) was incubated with a 45 bp double-stranded interferon stimulatory DNA (sense: 5′-[…]-3′, SEQ ID NO: 6; antisense: 5′-[…]-3′, SEQ ID NO: 7) (Stetson and Medzhitov (2006) Immunity 24:93-103) in the 20 μl reaction buffer containing 50 mM Tris-HCl pH 7.5, 35 mM KCl, 5 mM Mg(OAc)2, 1 mM DTT, 25 μM ATP, 25 μM GTP, and [α-^32P] ATP (˜1 μCi) at 37° C. for 30 min. Reactions were terminated by heating at 95° C. for 3 min, and subsequently incubated with 4 U of alkaline phosphatase (New England Biolabs) at 37° C. for 30 min to hydrolyze unreacted NTPs. One microliter of each reaction was spotted on a PEI-Cellulose F thin-layer chromatography plate (EMD Biosciences) developed with 1.5 M KH2PO4 (pH 3.8) as a running buffer. Radiolabeled products were detected by Typhoon Trio Variable Mode Imager system (GE Healthcare) and quantified with ImageQuant 5.2. […]. Briefly, ATP/GTP titrations (0, 5, 10, 25, 50, 100, 200, 400, 800, and 1000 μM) were performed in the presence of fixed cGAS (1 μM) and 45 bp dsDNA concentration (1.5 μM) in 10 μl of reaction buffer containing 50 mM Tris-HCl pH 7.5, 35 mM KCl, 5 mM Mg(OAc)2, 1 mM DTT, and [α-^32P] ATP (˜1 μCi) at 37° C. for 5 min. Reactions were terminated and analyzed using thin layer chromatography as indicated above. The ATP-dependent cGAS enzyme kinetics were plotted and fitted according to Michaelis-Menten substrate inhibition analysis in GraphPad Prism (version 7.0c).

In another data set the test system is 17 bp DNA. Description: In vitro cGAS 2′3′ cGAMP synthesis assay, DNA length specificity. It is filed as biochemical. As to the method:
[…]. Briefly, 1 μM cGAS ([…], SEQ ID NO: 6; antisense: 5′-[…]-3′, SEQ ID NO: 7) (Stetson and Medzhitov (2006) Immunity 24:93-103) in the 20 μl reaction buffer containing 50 mM Tris-HCl pH 7.5, 35 mM KCl, 5 mM Mg(OAc)2, 1 mM DTT, 25 μM ATP, 25 μM GTP, and [α-^32P] ATP (˜1 μCi) at 37° C. for 30 min. Reactions were terminated by heating at 95° C. for 3 min, and subsequently incubated with 4 U of alkaline phosphatase (New England Biolabs) at 37° C. for 30 min to hydrolyze unreacted NTPs. One microliter of each reaction was spotted on a PEI-Cellulose F thin-layer chromatography plate (EMD Biosciences) developed with 1.5 M KH2PO4 (pH 3.8) as a running buffer. Radiolabeled products were detected by Typhoon Trio Variable Mode Imager system (GE Healthcare) and quantified with ImageQuant 5.2. […]. Briefly, ATP/GTP titrations (0, 5, 10, 25, 50, 100, 200, 400, 800, and 1000 μM) were performed in the presence of fixed cGAS (1 μM) and 45 bp dsDNA concentration (1.5 μM) in 10 μl of reaction buffer containing 50 mM Tris-HCl pH 7.5, 35 mM KCl, 5 mM Mg(OAc)2, 1 mM DTT, and [α-^32P] ATP (˜1 μCi) at 37° C. for 5 min. Reactions were terminated and analyzed using thin layer chromatography as indicated above. The ATP-dependent cGAS enzyme kinetics were plotted and fitted according to Michaelis-Menten substrate inhibition analysis in GraphPad Prism (version 7.0c).

The next data set has as its system 45 bp dsDNA. Description: In vitro cGAS-DNA complex formation, electrophoretic mobility shift analysis. It counts as binding. To be noted: 45 bp DNA, gradient dialysis. Here is the method: cGAS-DNA complexes were stably assembled using a method adapted from a nucleosome assembly gradient dialysis protocol (Lee and Narlikar (2001) Current protocols in molecular biology Chapter 21, Unit 21.26), and complex formation was measured by electrophoretic mobility shift analysis. Briefly, a concentration gradient of recombinant protein (0.2, 0.4, 2, 10 μM) was incubated with 45 bp dsDNA (2 μM) in a high-salt buffer containing 20 mM HEPES-NaOH pH 7.8, […], 1 mM DTT at 4° C. for 20 min. The reconstitution mixture was then transferred into 8-10 kDa molecular weight cut-off dialysis tubing (Spectrum Labs), and placed into a beaker of the high-salt buffer. The KCl concentration was reduced gradually by slowly replacing high-salt buffer with low-salt buffer (20 mM HEPES-KOH pH 7.5, 50 mM KCl, 1 mM DTT) with a peristaltic pump (Bio-Rad) at a rate of […] for 48 hr at 4° C. After gradient dialysis, reactions were supplemented to 5% glycerol, and subsequently separated on a 2% agarose gel in 0.5×TBE buffer at 4° C. Agarose gels were stained in a solution containing 10 μg ml^−1 ethidium bromide and visualized with a ChemiDoc™ MP Imaging System (Bio-Rad). Alternatively, where indicated in FIGS. 8A and 8C, cGAS-DNA complexes were assembled by incubating directly in reaction buffer containing 20 mM HEPES-NaOH pH 7.8, […], 1 mM DTT at 4° C. for 20 min and analyzed by electrophoretic mobility shift analysis as indicated above.
A general note: A gel shift assay detects complexes by their altered migration in electrophoresis.

The next data set has as its system V. cholerae genomic DNA. Description: In vitro cGAS 2′3′ cGAMP synthesis assay with bacterial genomic DNA. It is filed as biochemical, Vibrio cholerae. To be noted: purified V. cholerae genomic DNA.

“Also recorded” adds a separate entry of the source.

As for dncV, in the data set on V. cholerae, the “V. cholerae chemotaxis repression” value was “inhibited chemotaxis”.

In the case of hcGAS, the “enhanced 2′3′ cGAMP synthesis versus wild type hcGAS” value in data set [1] is on record as greater than 15 fold. In addition, the “2′3′ cGAMP synthesis” value in data set [1] (listed as hcGAS*) is “activity comparable to wildtype mcGAS”. In addition, the “catalytic efficiency of 2′3′ cGAMP synthesis, fold less efficient than mcGAS” value in data set [1] (varying ATP concentration, Michaelis-Menten with substrate inhibition) is given as roughly 20 fold. In addition, the “2′3′ cGAMP synthesis / enzyme activation in response to short DNA” value (“2′3′ cGAMP synthesis / enzyme activation” below) in the data set with 17 bp DNA is “remained inactive”. For the same molecule, the “V. cholerae chemotaxis repression” value with V. cholerae is listed as “no loss of chemotaxis”. For the same molecule, the “higher-order cGAS-DNA complex formation” value with 45 bp dsDNA is “preferentially formed higher-order oligomeric complexes”.

Regarding mcGAS, the “2′3′ cGAMP synthesis / enzyme activation” value in the data set on 17 bp DNA is “recognized both 45 bp and 17 bp DNA with near equal efficiency”. Moreover, the “2′3′ cGAMP synthesis in response to bacterial genomic DNA” value in the data set on V. cholerae genomic DNA is given as “produces more 2′3′ cGAMP than hcGAS”. In addition, the “V. cholerae chemotaxis repression” value with V. cholerae was “potently arrested chemotaxis”. In the data set on 45 bp dsDNA, the “lower molecular weight minimal cGAS-DNA complex formation” value is given as “formed two types of DNA complexes”.

B1: hcGAS K187N/L195R (protein, UniProt Q8N884 1-522, looked up, variant K187N L195R)
Cyclic GMP-AMP synthase: MQPWHGKAMQRASEAGATAPKASARNARGAPMDPTESPAAPEAALPKAGKFGPARKSGSRQKKSAPDTQERPPVRATGARAKKAPQRAQDTQPSDATSAPGAEGLEPPAAREPALSRAGSCRQRGARCSTKPRPPPGPWDVPSPGLPVSAPILVRRDAAPGASKLRAVLEKLKLSRDDISTAAGMVNGVVDHLLRRLKCDSAFRGVGLLNTGSYYEHVKISAPNEFDVMFKLEVPRIQLEEYSNTRAYYFVKFKRNPKENPLSQFLEGEILSASKMLSKFRKIIKEEINDIKDTDVIMKRKRGGSPAVTLLISEKISVDITLALESKSSWPASTQEGLRIQNWLSAKVRKQLRLKPFYLVPKHAKEGNGFQEETWRLSFSHIEKEILNNHGKSKTCCENKEEKCCRKDCLKLMKYLLEQLKERFKDKKHLDKFSSYHVKTAFFHVCTQNPQDSQWDRKDLGLCFDNCVTYFLQCLRTEKLENYFIPEFNLFSSNLIDKRSKEFLTKQIEYERNNEFPVFDEF
Consider B1, for which the “2′3′ cGAMP synthesis” value in data set [1] was “elevated 2′3′ cGAMP synthesis; also recorded: dramatically enhanced 2′3′ cGAMP synthesis”. In addition, the “enzyme kinetics of 2′3′ cGAMP synthesis” value in data set [1] (varying ATP concentration, compared to mcGAS) is given as “nearly equal to mcGAS”. In addition, the “2′3′ cGAMP synthesis / enzyme activation” value in the data set with 17 bp DNA is “full enzyme activation”. Besides, the “V. cholerae chemotaxis repression” value in the data set on V. cholerae is “potently inhibited V. cholerae chemotaxis”. Besides, in the data set with 45 bp dsDNA, the “higher-order cGAS-DNA complex formation” value is given as “unaffected” and the “lower molecular weight minimal cGAS-DNA complex formation” value is recorded as “restored the ability of hcGAS to form a stable lower molecular weight protein-DNA complex”.

B2: K187N (protein, listed as Homo sapiens)
chain: MQPWHGKAMQRASEAGATAPKASARNARGAPMDPTESPAAPEAALPKAGKFGPARKSGSRQKKSAPDTQERPPVRATGARAKKAPQRAQDTQPSDATSAPGAEGLEPPAAREPALSRAGSCRQRGARCSTKPRPPPGPWDVPSPGLPVSAPILVRRDAAPGASKLRAVLEKLKLSRDDISTAAGMVNGVVDHLLLRLKCDSAFRGVGLLNTGSYYEHVKISAPNEFDVMFKLEVPRIQLEEYSNTRAYYFVKFKRNPKENPLSQFLEGEILSASKMLSKFRKIIKEEINDIKDTDVIMKRKRGGSPAVTLLISEKISVDITLALESKSSWPASTQEGLRIQNWLSAKVRKQLRLKPFYLVPKHAKEGNGFQEETWRLSFSHIEKEILNNHGKSKTCCENKEEKCCRKDCLKLMKYLLEQLKERFKDKKHLDKFSSYHVKTAFFHVCTQNPQDSQWDRKDLGLCFDNCVTYFLQCLRTEKLENYFIPEFNLFSSNLIDKRSKEFLTKQIEYERNNEFPVFDEF
Consider B2, for which the “V. cholerae chemotaxis repression” value in the data set with V. cholerae was “Neither K187N nor L195R alone was sufficient to enhance hcGAS activity”.

B3: L195R (protein, listed as Homo sapiens)
chain: MQPWHGKAMQRASEAGATAPKASARNARGAPMDPTESPAAPEAALPKAGKFGPARKSGSRQKKSAPDTQERPPVRATGARAKKAPQRAQDTQPSDATSAPGAEGLEPPAAREPALSRAGSCRQRGARCSTKPRPPPGPWDVPSPGLPVSAPILVRRDAAPGASKLRAVLEKLKLSRDDISTAAGMVKGVVDHLLRRLKCDSAFRGVGLLNTGSYYEHVKISAPNEFDVMFKLEVPRIQLEEYSNTRAYYFVKFKRNPKENPLSQFLEGEILSASKMLSKFRKIIKEEINDIKDTDVIMKRKRGGSPAVTLLISEKISVDITLALESKSSWPASTQEGLRIQNWLSAKVRKQLRLKPFYLVPKHAKEGNGFQEETWRLSFSHIEKEILNNHGKSKTCCENKEEKCCRKDCLKLMKYLLEQLKERFKDKKHLDKFSSYHVKTAFFHVCTQNPQDSQWDRKDLGLCFDNCVTYFLQCLRTEKLENYFIPEFNLFSSNLIDKRSKEFLTKQIEYERNNEFPVFDEF
Regarding B3, in the data set on V. cholerae, the “V. cholerae chemotaxis repression” value is “Neither K187N nor L195R alone was sufficient to enhance hcGAS activity”.
